The test system of one test is GP2D (KRAS G12D) cells. Description: 2D cell viability assay (CellTiter-Glo). In kind it is cell-based. Particulars: GP2d, 96 h, 4 days. The method, boiled down: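 GP2D (KRAS G12D) cells, 1000/well in RPMI + 10% FBS, were plated onto compound (1:3 DMSO series) and grown 4 days at 37 °C, 5% CO2 in 2D. CellTiter-Glo luminescence was read; EC50 is the concentration giving 50% signal decrease, from sigmoidal fit.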

For the next test, the target named is GDP-loaded KRAS G12D (Homo sapiens (Human), UniProt P01116, G12D). Nature of the test: KRAS G12D (GDP) biochemical assay (TR-FRET probe displacement). In kind it is binding. The note with it: 2 hours. In short, it runs like this: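 Compound pre-incubated 30 min with GDP-loaded KRAS G12D in 50 mM Hepes pH 7.4, 150 mM NaCl, 5 mM MgCl2, 0.005% Tween-20, then Eu-streptavidin and TR-FRET probe added. After 2 h at room temperature, TR-FRET ratio read; IC50 is 50% ratio decrease, sigmoidal fit.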
GDP-loaded KRAS G12D, sequence (P01116-2 other isoform, or with tags, fused parts or gaps G12D): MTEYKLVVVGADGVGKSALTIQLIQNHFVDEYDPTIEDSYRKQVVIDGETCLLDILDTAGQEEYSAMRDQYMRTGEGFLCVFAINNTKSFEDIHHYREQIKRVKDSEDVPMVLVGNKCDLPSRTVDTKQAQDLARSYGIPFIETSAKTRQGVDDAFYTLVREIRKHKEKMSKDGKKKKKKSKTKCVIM
Background: In TR-FRET formats the signal depends on donor and acceptor labels being close together.

For 15 molecules, EC50 and IC50 results are on record in patent US20230339981A1, “KRAS G12D MODULATING COMPOUNDS” (priority 2022, published 2023).

For `C#Cc1c(F)ccc2cccc(-c3nc4c5c(nc(OC[C@@]67CCCN6C[C@H](OC(C(F)(F)F)(C(F)(F)F)C(F)(F)F)C7)nc5c3F)N3C[C@H]5CC[C@H](N5)[C@H]3CC4)c12` [Example 130, (5aR,6S,9R)-2-(8-ethynyl-7-fluoronaphthalen-1-yl)-1-fluoro-12-((trans-2-((1,1,1,3,3,3-hexafluoro-2-(trifluoromethyl)propan-2-yl)oxy)tetrahydro-1H-pyrrolizin-7a(5H)-yl)methoxy)-4,5,5a,6,7,8,9,10-octahydro-3,10a,11,13,14-pentaaza-6,9-methanonaphtho[1,8-ab]heptalene], the midpoint of the response in the test on GP2D (KRAS G12D) cells, the EC50, lay at 100 nM. The IC50 (in general, the point on the concentration scale where inhibition reaches its midpoint) on GDP-loaded KRAS G12D is 100 nM.
Regarding `CCc1c(F)ccc2cccc(-c3nc4c5c(nc(OC[C@@]67CCCN6C[C@H](F)C7)nc5c3F)N3C[C@H]5CC[C@H](N5)[C@@H]3[C@@H](C)C4)c12` [Example 131, (5S,5aS,6S,9R)-2-(8-ethyl-7-fluoronaphthalen-1-yl)-1-fluoro-12-(((2R,7aS)-2-fluorotetrahydro-1H-pyrrolizin-7a(5H)-yl)methoxy)-5-methyl-4,5,5a,6,7,8,9,10-octahydro-3,10a,11,13,14-pentaaza-6,9-methanonaphtho[1,8-ab]heptalene], the EC50 (in general, the midpoint of the concentration-response curve) in the test on GP2D (KRAS G12D) cells was 100 nM. Moreover, the IC50 at GDP-loaded KRAS G12D worked out at 55.3 nM.
On the same counts, the results for `C#Cc1c(F)ccc2cccc(-c3nc4c5c(nc(OCC6(CN7CCC8(CC7)CC8(F)F)CC6)nc5c3F)N3C[C@H]5CC[C@H](N5)[C@@H]3[C@@H](C)C4)c12` [Example 136, (5S,5aS,6S,9R)-12-((1-((1,1-difluoro-6-azaspiro[2.5]octan-6-yl)methyl)cyclopropyl)methoxy)-2-(8-ethynyl-7-fluoronaphthalen-1-yl)-1-fluoro-5-methyl-4,5,5a,6,7,8,9,10-octahydro-3,10a,11,13,14-pentaaza-6,9-methanonaphtho[1,8-ab]heptalene] are 100 nM and 17.1 nM.
The corresponding values for `C#Cc1c(F)ccc2cccc(-c3nc4c5c(nc(OCC67CCCN6C[C@H](OC(F)(F)F)C7)nc5c3F)N3C[C@H]5CC[C@H](N5)[C@H]3CC4)c12` (stereo partly drawn) [Example 137, (5aR,6S,9R)-2-(8-ethynyl-7-fluoronaphthalen-1-yl)-1-fluoro-12-((cis-2-(trifluoromethoxy)tetrahydro-1H-pyrrolizin-7a(5H)-yl)methoxy)-4,5,5a,6,7,8,9,1O-octahydro-3,10a,11,13,14-pentaaza-6,9-methanonaphtho[1,8-ab]heptalene] are 100 nM and 24.5 nM.
On the same counts, the results for `C#Cc1c(F)ccc2cc(O)cc(-c3nc4c5c(nc(OCC67CCCN6C[C@H](OC(F)(F)F)C7)nc5c3F)N3C[C@H]5CC[C@H](N5)[C@H]3CC4)c12` (stereo partly drawn) [Example 138, 5-ethynyl-6-fluoro-4-((5aR,6S,9R)-1-fluoro-12-((cis-2-(trifluoromethoxy)tetrahydro-1H-pyrrolizin-7a(5H)-yl)methoxy)-4,5,5a,6,7,8,9,10-octahydro-3,10a,11,13,14-pentaaza-6,9-methanonaphtho[1,8-ab]heptalen-2-yl)naphthalen-2-ol] are 17.2 nM and 0.3 nM.
`C#Cc1c(F)ccc2cc(O)cc(-c3nc4c5c(nc(OC[C@]67CCCN6C[C@H](OC(C(F)(F)F)(C(F)(F)F)C(F)(F)F)C7)nc5c3F)N3C[C@H]5CC[C@H](N5)[C@H]3CC4)c12` [Example 144, 5-ethynyl-6-fluoro-4-((5aR,6S,9R)-1-fluoro-12-((cis-2-((1,1,1,3,3,3-hexafluoro-2-(trifluoromethyl)propan-2-yl)oxy)tetrahydro-1H-pyrrolizin-7a(5H)-yl)methoxy)-4,5,5a,6,7,8,9,10-octahydro-3,10a,11,13,14-pentaaza-6,9-methanonaphtho[1,8-ab]heptalen-2-yl)naphthalen-2-ol] came in with an EC50 in the test with GP2D (KRAS G12D) cells of 100 nM. The IC50 on GDP-loaded KRAS G12D came to 83.1 nM.
The corresponding values for `C#Cc1c(F)ccc2cccc(-c3nc4c5c(nc(OC[C@]67CCCN6C[C@H](OC(C(F)(F)F)(C(F)(F)F)C(F)(F)F)C7)nc5c3F)N3C[C@H]5CC[C@H](N5)[C@H]3CC4)c12` [Example 145, (5aR,6S,9R)-2-(8-ethynyl-7-fluoronaphthalen-1-yl)-1-fluoro-12-((cis-2-((1,1,1,3,3,3-hexafluoro-2-(trifluoromethyl)propan-2-yl)oxy)tetrahydro-1H-pyrrolizin-7a(5H)-yl)methoxy)-4,5,5a,6,7,8,9,10-octahydro-3,10a,11,13,14-pentaaza-6,9-methanonaphtho[1,8-ab]heptalene] are 100 nM and 100 nM.
The molecule `C#Cc1c(F)ccc2cccc(-c3nc4c5c(nc(OCC6(CN7CCC(C(F)(F)F)CC7)CC6)nc5c3F)N3C[C@H]5CC[C@H](N5)[C@@H]3[C@@H](C)C4)c12` [Example 146, (5S,5aS,6S,9R)-2-(8-ethynyl-7-fluoronaphthalen-1-yl)-1-fluoro-5-methyl-12-((1-((4-(trifluoromethyl)piperidin-1-yl)methyl)cyclopropyl)methoxy)-4,5,5a,6,7,8,9,10-octahydro-3,10a,11,13,14-pentaaza-6,9-methanonaphtho[1,8-ab]heptalene] showed an EC50 in the test on GP2D (KRAS G12D) cells of 100 nM. Moreover, the IC50 on GDP-loaded KRAS G12D was found to be 15.6 nM.
On the same counts, the results for `C#Cc1c(F)ccc2cc(O)cc(-c3nc4c5c(nc(OC[C@@]67CCCN6[C@H](COc6cc(C(F)(F)F)ncn6)CC7)nc5c3F)N3C[C@H]5CC[C@H](N5)[C@H]3CC4)c12` [Example 149, 5-ethynyl-6-fluoro-4-((5aR,6S,9R)-1-fluoro-12-(((3S,7aS)-3-(((6-(trifluoromethyl)pyrimidin-4-yl)oxy)methyl)tetrahydro-1H-pyrrolizin-7a(5H)-yl)methoxy)-4,5,5a,6,7,8,9,10-octahydro-3,10a,11,13,14-pentaaza-6,9-methanonaphtho[1,8-ab]heptalen-2-yl)naphthalen-2-ol] are 0.3 nM and < 0.1 nM.
In the case of `C#Cc1c(F)ccc2cccc(-c3nc4c5c(nc(OC[C@@]67CCCN6[C@H](COC(C(F)(F)F)C(F)(F)F)CC7)nc5c3F)N3C[C@H]5CC[C@H](N5)[C@H]3CC4)c12` [Example 150, (5aR,6S,9R)-2-(8-ethynyl-7-fluoronaphthalen-1-yl)-1-fluoro-12-(((3S,7aS)-3-(((1,1,1,3,3,3-hexafluoropropan-2-yl)oxy)methyl)tetrahydro-1H-pyrrolizin-7a(5H)-yl)methoxy)-4,5,5a,6,7,8,9,10-octahydro-3,10a,11,13,14-pentaaza-6,9-methanonaphtho[1,8-ab]heptalene], in the test on GP2D (KRAS G12D) cells, the EC50 is 47.2 nM. At GDP-loaded KRAS G12D, this molecule had an IC50 of 0.2 nM.
On the same counts, the results for `C#Cc1c(F)ccc2cccc(-c3nc4c5c(nc(OC[C@@]67CCCN6[C@H](COc6ccnc(C(F)(F)F)n6)CC7)nc5c3F)N3C[C@H]5CC[C@H](N5)[C@H]3CC4)c12` [Example 151, (5aR,6S,9R)-2-(8-ethynyl-7-fluoronaphthalen-1-yl)-1-fluoro-12-(((3S,7aS)-3-(((2-(trifluoromethyl)pyrimidin-4-yl)oxy)methyl)tetrahydro-1H-pyrrolizin-7a(5H)-yl)methoxy)-4,5,5a,6,7,8,9,10-octahydro-3,10a,11,13,14-pentaaza-6,9-methanonaphtho[1,8-ab]heptalene] are 5 nM and 0.1 nM.
The corresponding values for `C#Cc1c(F)ccc2cccc(-c3nc4c5c(nc(OC[C@@]67CCCN6[C@H](COc6cc(C(F)(F)F)ncn6)CC7)nc5c3F)N3C[C@H]5CC[C@H](N5)[C@H]3CC4)c12` [Example 152, (5aR, 6S, 9R)-2-(8-ethynyl-7-fluoronaphthalen-1-yl)-1-fluoro-12-(((3S,7aS)-3-(((6-(trifluoromethyl)pyrimidin-4-yl)oxy)methyl)tetrahydro-1H-pyrrolizin-7a(5H)-yl)methoxy)-4,5,5a,6,7,8,9,10-octahydro-3,10a,11,13,14-pentaaza-6,9-methanonaphtho[1,8-ab]heptalene] are 5.4 nM and 0.1 nM.
On the same counts, the results for `C#Cc1c(F)ccc2cccc(-c3nc4c5c(nc(OC[C@@]67CCCN6[C@H](COc6cc(C(F)(F)F)ncn6)CC7)nc5c3F)N3C[C@H]5CC[C@H](N5)[C@H]3CCC4)c12` [Example 154, (6aR,7S,10R)-2-(8-ethynyl-7-fluoronanhthalen-1-yl)-1-fluoro-13-(((3S,7aS)-3-(((6-(trifluoromethyl)pyrimidin-4-yl)oxy)methyl)tetrahydro-1H-pyrrolizin-7a(5H)-yl)methoxy)-5,6,6a,7,8,9,10,11-octahydro-4H-3,11a,12,14,15-pentaaza-7,10-methanocyclohepta[4,5]cycloocta[1,2,3-de]naphthalene] are 1 nM and 0.1 nM.
As to `C#Cc1c(F)ccc2cccc(-c3nc4c5c(nc(OC[C@@]67CCCN6C[C@H](F)C7)nc5c3F)N3C[C@H]5CC[C@H](N5)[C@@H]3[C@@H](C)CC4)c12` [Example 156, (6S,6aS,7S,10R)-2-(8-ethynyl-7-fluoronaphthalen-1-yl)-1-fluoro-13-(((2R,7aS)-2-fluorotetrahydro-1H-pyrrolizin-7a(5H)-yl)methoxy)-6-methyl-5,6,6a,7,8,9,10,11-octahydro-4H-3,11a,12,14,15-pentaaza-7,10-methanocyclohepta[4,5]cycloocta[1,2,3-de]naphthalene], the response with GP2D (KRAS G12D) cells was half-maximal at 100 nM (EC50). This molecule gave an IC50 on GDP-loaded KRAS G12D of 100 nM.
On to `C#Cc1c(F)ccc2cccc(-c3nc4c5c(nc(OCC67CCCN6CCC7)nc5c3F)N3C[C@H]5CC[C@H](N5)[C@@H]3[C@@H](C)C4)c12` [Example 157, (5S,5aS,6S,9R)-2-(8-ethynyl-7-fluoronaphthalen-1-yl)-1-fluoro-5-methyl-12-((tetrahydro-1H-pyrrolizin-7a(5H)-yl)methoxy)-4,5,5a,6,7,8,9,10-octahydro-3,10a,11,13,14-pentaaza-6,9-methanonaphtho[1,8-ab]heptalene], for which, in the test on GP2D (KRAS G12D) cells, the EC50 stood at 29.4 nM. The molecule also returned an IC50 at GDP-loaded KRAS G12D of 6.4 nM.
